Patent publication EP2331496B1, “USE OF AN N-ACYL AMINO ACID SELECTED FROM AMONG N-PALMITOYL ALANINE, N-PALMITOYL GLYCINE, AND N-PALMITOYL ISOLEUCINE AS A REGULATING ACTIVE AGENT OF THE GENETIC PROFILE OF SENESCENT REPLICATING FIBROBLASTS OF THE HUMAN SKIN DERMIS” (Societe D'Exploitation De Produits Pour Les Industries …, priority 2008, dated 2010)

What was measured:
[1] = tested on: gène codant la métallo protéinase MMP-1; assay: Q-PCR gene expression in replicative senescent human dermal fibroblasts: MMP-1; type: cell-based, humains; conditions: aged fibroblasts from adult dermis (16 passages), cultured 96 h with the substance, compared with young cells (8 passages, 100 %)
Description: (§1) Des fibroblastes humains normaux issus de derme adulte et vieillis de manière accélérée (16 passages en culture) ou non (8 passages en culture) ont été cultivés en présence ou non de chacun des quatre N-acyl amino acides suivants : N-palmitoyl glycine, N-palmitoyl alanine, N-palmitoyl isoleucine et N-cocoyl alanine pendant 96 heures. A la fin de l'expérience, les cellules ont été lavées et extraites pour l'analyse génomique. Cette dernière a été réalisée par Q-PCR ("Quantitative Polymerase Chain Reaction").
(§2) Pour chacun des diagrammes de ces figures, les résultats sont exprimés en pourcentage de variation des niveaux relatifs d'expression génique par rapport aux cellules jeunes (100 %), les pourcentages en haut des histogrammes expriment les pourcentages de restauration et les abréviations indiquées sont conformes à la nomenclature officielle Genbank.

[2] = tested on: gène codant la cytokine pro-inflammatoire IL-6; assay: Q-PCR gene expression in replicative senescent human dermal fibroblasts: IL-6; type: cell-based, humains; conditions: aged fibroblasts from adult dermis (16 passages), cultured 96 h with the substance, compared with young cells (8 passages, 100 %)
Description: as §1, §2

[3] = tested on: gène codant la dermatopontine (DPT); assay: Q-PCR gene expression in replicative senescent human dermal fibroblasts: DPT; type: cell-based, humains; conditions: aged fibroblasts from adult dermis (16 passages), cultured 96 h with the substance, compared with young cells (8 passages, 100 %)
Description: as §1, §2

[4] = tested on: gène codant le collagène de type I (COL1A1); assay: Q-PCR gene expression in replicative senescent human dermal fibroblasts: COL1A1; type: cell-based, humains; conditions: aged fibroblasts from adult dermis (16 passages), cultured 96 h with the substance, compared with young cells (8 passages, 100 %)
Description: as §1, §2

[5] = tested on: sujets caucasiens âgés de 45 ans à 76 ans et présentant des rides de vieillissement cutané; assay: In vivo anti-wrinkle efficacy, topical gel-cream on the eye contour (crow's feet); parameters: species or system humain; conditions: 1% gel-cream, topical twice daily on the face, crow's feet zone, 42 days, about 20 volunteers/group; results expressed relative to a commercial reference lipopeptide product
Description: Les N-acyl amino acides testés ont été formulés en gel-crème à 1% dans le couple d'émulsionnants MONTANOV™ 202, MONTANOV™ 82, l'épaississant SEPIPLUS™ 400 ainsi que le MONTANOX™ 60D, afin d'effectuer des applications topiques biquotidiennes sur le visage de sujets caucasiens âgés de 45 ans à 76 ans et présentant des rides de vieillissement cutané (environ 20 volontaires/groupe). Un produit lipopeptidique commercial de référence a également été testé selon le même protocole expérimental.
La région anatomique choisie pour cette étude était la zone du contour de l'oeil (patte d'oie).
La durée du traitement a été de 42 jours.
Les résultats ont été exprimés en termes de surface ridée totale et de nombre de rides par rapport à un produit lipopeptidique commercial de référence.

[6] = tested on: gène codant la tenascine C (TNC); assay: Q-PCR gene expression in replicative senescent human dermal fibroblasts: TNC; type: cell-based, humains; conditions: aged fibroblasts from adult dermis (16 passages), cultured 96 h with the substance, compared with young cells (8 passages, 100 %)
Description: as §1, §2

[7] = tested on: gène codant le nidogène (NID); assay: Q-PCR gene expression in replicative senescent human dermal fibroblasts: NID; type: cell-based, humains; conditions: aged fibroblasts from adult dermis (16 passages), cultured 96 h with the substance, compared with young cells (8 passages, 100 %)
Description: as §1, §2

[8] = tested on: gène codant la protéine de choc thermique (HSP 90A); assay: Q-PCR gene expression in replicative senescent human dermal fibroblasts: HSP 90A; type: cell-based, humains; conditions: aged fibroblasts from adult dermis (16 passages), cultured 96 h with the substance, compared with young cells (8 passages, 100 %)
Description: as §1, §2

[9] = tested on: gène codant la pleiotrophine (PTN); assay: Q-PCR gene expression in replicative senescent human dermal fibroblasts: PTN; type: cell-based, humains; conditions: aged fibroblasts from adult dermis (16 passages), cultured 96 h with the substance, compared with young cells (8 passages, 100 %)
Description: as §1, §2

[10] = tested on: gène codant la Serpine 1H (HSP47); assay: Q-PCR gene expression in replicative senescent human dermal fibroblasts: Serpine 1H (HSP47); type: cell-based, humains; conditions: aged fibroblasts from adult dermis (16 passages), cultured 96 h with the substance, compared with young cells (8 passages, 100 %)
Description: as §1, §2

[11] = tested on: gène codant la Serpine 2B; assay: Q-PCR gene expression in replicative senescent human dermal fibroblasts: Serpine 2B; type: cell-based, humains; conditions: aged fibroblasts from adult dermis (16 passages), cultured 96 h with the substance, compared with young cells (8 passages, 100 %)
Description: as §1, §2

[12] = tested on: gène codant le biglycane (BGN); assay: Q-PCR gene expression in replicative senescent human dermal fibroblasts: BGN; type: cell-based, humains; conditions: aged fibroblasts from adult dermis (16 passages), cultured 96 h with the substance, compared with young cells (8 passages, 100 %)
Description: as §1, §2

[13] = tested on: gène codant la vimentine; assay: Q-PCR gene expression in replicative senescent human dermal fibroblasts: vimentine; type: cell-based, humains; conditions: aged fibroblasts from adult dermis (16 passages), cultured 96 h with the substance, compared with young cells (8 passages, 100 %)
Description: as §1, §2

CCCCCCCCCCCCCCCC(=O)N[C@@H](C)C(=O)O [N-palmitoyl alanine]
niveau d'expression du gène codant la métallo protéinase MMP-1 [1]: diminution du niveau d'expression | niveau d'expression du gène codant la cytokine pro-inflammatoire IL-6 [2]: diminution du niveau d'expression | niveau d'expression du gène codant la dermatopontine (DPT) [3]: augmentation du niveau d'expression | niveau d'expression du gène codant le collagène de type I (COL1A1) [4]: augmentation du niveau d'expression | diminution de la surface ridée totale [5]: 15%

CCCCCCCCCCCCCCCC(=O)NCC(=O)O [N-palmitoyl glycine]
niveau d'expression du gène codant la tenascine C (TNC) [6]: augmentation du niveau d'expression | niveau d'expression du gène codant la métallo protéinase MMP-1 [1]: diminution du niveau d'expression | niveau d'expression du gène codant la cytokine pro-inflammatoire IL-6 [2]: diminution du niveau d'expression | niveau d'expression du gène codant la dermatopontine (DPT) [3]: augmentation du niveau d'expression | diminution du nombre de rides [5]: 35% | niveau d'expression du gène codant le nidogène (NID) [7]: augmentation du niveau d'expression | niveau d'expression du gène codant la protéine de choc thermique (HSP 90A) [8]: augmentation du niveau d'expression | niveau d'expression du gène codant la pleiotrophine (PTN) [9]: augmentation du niveau d'expression

CCCCCCCCCCCCCCCC(=O)N[C@H](C(=O)O)[C@@H](C)CC [N-palmitoyl isoleucine]
niveau d'expression du gène codant la tenascine C (TNC) [6]: augmentation du niveau d'expression | niveau d'expression du gène codant la cytokine pro-inflammatoire IL-6 [2]: diminution du niveau d'expression | niveau d'expression du gène codant la Serpine 1H (HSP47) [10]: augmentation du niveau d'expression | niveau d'expression du gène codant la Serpine 2B [11]: diminution du niveau d'expression | niveau d'expression du gène codant la dermatopontine (DPT) [3]: augmentation du niveau d'expression | niveau d'expression du gène codant le collagène de type I (COL1A1) [4]: augmentation du niveau d'expression | diminution du nombre de rides [5]: 40% | niveau d'expression du gène codant le biglycane (BGN) [12]: augmentation du niveau d'expression | niveau d'expression du gène codant la vimentine [13]: augmentation du niveau d'expression | niveau d'expression du gène codant le nidogène (NID) [7]: augmentation du niveau d'expression | niveau d'expression du gène codant la protéine de choc thermique (HSP 90A) [8]: augmentation du niveau d'expression | niveau d'expression du gène codant la pleiotrophine (PTN) [9]: augmentation du niveau d'expression
